For four compounds, speed of sound and mass density results are on record in the NIST ThermoML archive (doi:10.1016/j.jct.2015.09.020).

± gives the expanded uncertainty stated by the source.

For data set [1] the following is noted: 278.15 K, 101.3 kPa, Liquid.
Data set [2] in a line: mn = molality of the nth substance listed, in mol/kg. The conditions noted are these: 278.15 K, 101.3 kPa, Liquid, m2 = 0; for speed of sound: Frequency=2 MHz, Linear variable-path acoustic interferometer; for mass density: Pycnometric method.

Broadly, the speed of sound is the propagation velocity of pressure waves in the medium. As a reminder, the mass density is the mass of a sample divided by its volume. On to `O` [water], for which, in data set [1] (Frequency=2 MHz, Linear variable-path acoustic interferometer), the speed of sound amounted to 1426.2 ± 1.7 m/s. Further, the mass density in data set [1] (Pycnometric method) was determined as 999.96 ± 0.28 kg/m3.
On to `O` [water] + Cl.NCC(=O)O, for which, in data set [2], the speed of sound was found to be 1426.2 ± 1.7 m/s and the mass density was 999.96 ± 0.28 kg/m3.
The like results for `O` [water] + NCCCC(=O)O were, in that order, 1426.2 ± 1.7 m/s and 999.96 ± 0.28 kg/m3.
The like results for `O` [water] + N[C@@H](CCC(=O)[O-])C(=O)O.[Na+] were, in that order, 1426.2 ± 1.7 m/s and 999.96 ± 0.29 kg/m3.
